How the values were obtained:
[1] = target: GDP-bound NRAS wild-type protein (Homo sapiens, UniProt P01111); assay: Binding to NRAS by surface plasmon resonance (SPR), Single Cycle Kinetics; conditions: KD ratio NRAS/KRAS, SPR
[2] = target: GDP-bound HRAS wild-type protein (Homo sapiens, UniProt P01112); assay: Binding to HRAS by surface plasmon resonance (SPR), Single Cycle Kinetics; conditions: KD ratio HRAS/KRAS, SPR
GDP-bound HRAS wild-type protein, sequence (P01112 whole entry): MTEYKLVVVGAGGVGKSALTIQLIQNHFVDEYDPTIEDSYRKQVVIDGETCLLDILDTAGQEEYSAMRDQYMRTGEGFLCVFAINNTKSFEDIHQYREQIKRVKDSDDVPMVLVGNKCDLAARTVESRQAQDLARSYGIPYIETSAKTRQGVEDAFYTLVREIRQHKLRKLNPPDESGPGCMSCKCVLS

GDP-bound NRAS wild-type protein, sequence (P01111 whole entry): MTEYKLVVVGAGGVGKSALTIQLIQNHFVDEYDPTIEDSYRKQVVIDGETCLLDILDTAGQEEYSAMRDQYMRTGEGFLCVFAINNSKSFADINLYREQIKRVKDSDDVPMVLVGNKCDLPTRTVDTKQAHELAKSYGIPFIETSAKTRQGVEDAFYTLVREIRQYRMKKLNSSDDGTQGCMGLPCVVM

Row | Compound | NRAS/KRAS (ratio of KD value with respect to GDP-bound NRAS wild-type protein to KD value with respect to KRAS) [1] | HRAS/KRAS (ratio of KD value with respect to GDP-bound HRAS wild-type protein to KD value with respect to KRAS) [2]
1 | CCO[C@@H]1C[C@H]2C(=O)NC3(CCC3)C(=O)N(C)[C@@H](C3CCCC3)C(=O)N(CCC3CCC3)[C@H](C(=O)N3CCOCC3)CC(=O)N(C)[C@@H](CC(C)C)C(=O)N[C@@H]([C@@H](C)CC)C(=O)N(C)CC(=O)N(C)[C@H]3CCCCN(C3=O)[C@@H](Cc3ccc(C(F)(F)F)cc3)C(=O)N(C)CC(=O)N[C@@H](CCc3cc(F)c(C(F)(F)F)c(F)c3)C(=O)N2C1 [PP0650] | C (A compound having a KD ratio of 0.1 or more and less than 3 is denoted as C) | B (a compound having 3 or more and less than 10 is denoted as B)
2 | CCO[C@@H]1C[C@H]2C(=O)NC3(CCC3)C(=O)N(C)[C@@H](C3CCCC3)C(=O)N(CCC3CCCC3)[C@H](C(=O)N3CCOCC3)CC(=O)N(C)[C@@H](CC(C)C)C(=O)N[C@@H]([C@@H](C)CC)C(=O)N(C)CC(=O)N(C)[C@H]3CCCCN(C3=O)[C@@H](Cc3ccc(C(F)(F)F)cc3)C(=O)N(C)CC(=O)N[C@@H](CCc3cc(F)c(C(F)(F)F)c(F)c3)C(=O)N2C1 [PP0651] | B (a compound having 3 or more and less than 10 is denoted as B) | B (a compound having 3 or more and less than 10 is denoted as B)
3 | CCO[C@@H]1C[C@H]2C(=O)NC3(CCC3)C(=O)N(C)[C@@H](C3CCCC3)C(=O)N(CCc3ccccc3)[C@H](C(=O)N3CCOCC3)CC(=O)N(C)[C@@H](CC(C)C)C(=O)N[C@@H]([C@@H](C)CC)C(=O)N(C)CC(=O)N(C)[C@H]3CCCCN(C3=O)[C@@H](Cc3ccc(C(F)(F)F)cc3)C(=O)N(C)CC(=O)N[C@@H](CCc3cc(F)c(C(F)(F)F)c(F)c3)C(=O)N2C1 [PP0652] | B (a compound having 3 or more and less than 10 is denoted as B) | B (a compound having 3 or more and less than 10 is denoted as B)
4 | CC[C@H](C)[C@@H]1NC(=O)[C@H](CC)N(C)C(=O)C[C@@H](C(=O)N(C)C)N(C)C(=O)[C@H](C2CCCC2)N(C)C(=O)C2(CCC2)NC(=O)[C@@H]2CCN2C(=O)[C@H](CCc2cc(F)c(C(F)(F)F)c(F)c2)NC(=O)CN(C)C(=O)[C@H](Cc2ccc(C(F)(F)F)cc2)N2CCCCC[C@@H](C2=O)N(C)C(=O)CN(C)C1=O [PP0654] | B (a compound having 3 or more and less than 10 is denoted as B) | B (a compound having 3 or more and less than 10 is denoted as B)
5 | CC[C@H](C)[C@@H]1NC(=O)[C@H](CC)N(C)C(=O)C[C@@H](C(=O)N(C)C)N(C)C(=O)[C@H](C2CCCC2)N(C)C(=O)C2(CCC2)NC(=O)[C@@H]2CCCCN2C(=O)[C@H](CCc2cc(F)c(C(F)(F)F)c(F)c2)NC(=O)CN(C)C(=O)[C@H](Cc2ccc(C(F)(F)F)cc2)N2CCCCC[C@@H](C2=O)N(C)C(=O)CN(C)C1=O [PP0655] | B (a compound having 3 or more and less than 10 is denoted as B) | B (a compound having 3 or more and less than 10 is denoted as B)
6 | CC[C@H](C)[C@@H]1NC(=O)[C@H](CC)N(C)C(=O)C[C@@H](C(=O)N(C)C)N(C)C(=O)[C@H](C2CCCC2)N(C)C(=O)C2(CCC2)NC(=O)[C@@H]2C[C@@H](N3CCC(F)(F)CC3)CN2C(=O)[C@H](CCc2cc(F)c(C(F)(F)F)c(F)c2)NC(=O)CN(C)C(=O)[C@H](Cc2ccc(C(F)(F)F)cc2)N2CCCC[C@@H](C2=O)N(C)C(=O)CN(C)C1=O [PP0656] | C (A compound having a KD ratio of 0.1 or more and less than 3 is denoted as C) | C (A compound having a KD ratio of 0.1 or more and less than 3 is denoted as C)
7 | CC[C@H](C)[C@@H]1NC(=O)[C@H](CC)N(C)C(=O)C[C@@H](C(=O)N(C)C)N(C)C(=O)[C@H](C2CCCC2)N(C)C(=O)C2(CCC2)NC(=O)[C@@H]2CCN2C(=O)[C@H](CCc2cc(F)c(C(F)(F)F)c(F)c2)NC(=O)CN(C)C(=O)[C@H](Cc2ccc(C(F)(F)F)cc2)N2CCCC[C@@H](C2=O)N(C)C(=O)CN(C)C1=O [PP0657] | B (a compound having 3 or more and less than 10 is denoted as B) | B (a compound having 3 or more and less than 10 is denoted as B)
8 | CC[C@H](C)[C@@H]1NC(=O)[C@H](CC)N(C)C(=O)C[C@@H](C(=O)N(C)C)N(C)C(=O)[C@H](C2CCCC2)N(C)C(=O)C2(CCC2)NC(=O)[C@@H]2CCCCN2C(=O)[C@H](CCc2cc(F)c(C(F)(F)F)c(F)c2)NC(=O)CN(C)C(=O)[C@H](Cc2ccc(C(F)(F)F)cc2)N2CCCC[C@@H](C2=O)N(C)C(=O)CN(C)C1=O [PP0658] | C (A compound having a KD ratio of 0.1 or more and less than 3 is denoted as C) | B (a compound having 3 or more and less than 10 is denoted as B)
9 | CC[C@H](C)[C@@H]1NC(=O)[C@H](CC)N(C)C(=O)C[C@@H](C(=O)N(C)C)N(CC)C(=O)[C@H](C2CCCC2)N(C)C(=O)C2(CCC2)NC(=O)[C@@H]2C[C@H](N3CCC(F)(F)CC3)CN2C(=O)[C@H](CCc2cc(F)c(C(F)(F)F)c(F)c2)NC(=O)CN(C)C(=O)[C@H](Cc2ccc(C(F)(F)F)cc2)N2CCCC[C@@H](C2=O)N(C)C(=O)CN(C)C1=O [PP0659] | B (a compound having 3 or more and less than 10 is denoted as B) | B (a compound having 3 or more and less than 10 is denoted as B)
10 | CC[C@H](C)[C@@H]1NC(=O)[C@H](CC)N(C)C(=O)C[C@@H](C(=O)N(C)C)N(CC)C(=O)[C@H](C2CCCC2)N(C)C(=O)C2(CCC2)NC(=O)[C@@H]2CCN2C(=O)[C@H](CCc2cc(F)c(C(F)(F)F)c(F)c2)NC(=O)CN(C)C(=O)[C@H](Cc2ccc(C(F)(F)F)cc2)N2CCCC[C@@H](C2=O)N(C)C(=O)CN(C)C1=O [PP0660] | B (a compound having 3 or more and less than 10 is denoted as B) | B (a compound having 3 or more and less than 10 is denoted as B)
11 | CC[C@H](C)[C@@H]1NC(=O)[C@H](CC)N(C)C(=O)C[C@@H](C(=O)N(C)C)N(CC)C(=O)[C@H](C2CCCC2)N(C)C(=O)C2(CCC2)NC(=O)[C@@H]2CCCCN2C(=O)[C@H](CCc2cc(F)c(C(F)(F)F)c(F)c2)NC(=O)CN(C)C(=O)[C@H](Cc2ccc(C(F)(F)F)cc2)N2CCCC[C@@H](C2=O)N(C)C(=O)CN(C)C1=O [PP0661] | C (A compound having a KD ratio of 0.1 or more and less than 3 is denoted as C) | B (a compound having 3 or more and less than 10 is denoted as B)
12 | CC[C@H](C)[C@@H]1NC(=O)[C@H](CC(C)C)N(C)C(=O)C[C@@H](C(=O)N2CCOCC2)N(C)C(=O)[C@H](C2CCCC2)N(C)C(=O)C2(CCCC2)NC(=O)[C@@H]2[C@@H](O)CCN2C(=O)[C@H](CCc2cc(F)c(C(F)(F)F)c(F)c2)NC(=O)CN(C)C(=O)[C@H](Cc2ccc(C(F)(F)F)cc2)N2CCCCC[C@@H](C2=O)N(C)C(=O)CN(C)C1=O [PP0662] | B (a compound having 3 or more and less than 10 is denoted as B) | B (a compound having 3 or more and less than 10 is denoted as B)
13 | CCO[C@@H]1C[C@H]2C(=O)NC3(CCC3)C(=O)N(C)[C@@H](C3CCCC3)C(=O)N(C)[C@H](C(=O)N(C)C)CC(=O)N(C)[C@@H](CC)C(=O)N[C@@H]([C@@H](C)CC)C(=O)N(C)CC(=O)N(C)[C@H]3CCCCCN(C3=O)[C@@H](Cc3ccc(C(F)(F)F)cc3)C(=O)N(C)CC(=O)N[C@@H](CCc3cc(F)c(C(F)(F)F)c(F)c3)C(=O)N2C1 [PP0663] | B (a compound having 3 or more and less than 10 is denoted as B) | B (a compound having 3 or more and less than 10 is denoted as B)
14 | C=CC[C@H]1C(=O)N[C@@H]([C@@H](C)CC)C(=O)N(C)CC(=O)N(C)[C@H]2CCCCCN(C2=O)[C@@H](Cc2ccc(C(F)(F)F)cc2)C(=O)N(C)CC(=O)N[C@@H](CCc2cc(F)c(C(F)(F)F)c(F)c2)C(=O)N2C[C@H](OCC)C[C@H]2C(=O)NC2(CCC2)C(=O)N(C)[C@@H](C2CCCC2)C(=O)N(C)[C@H](C(=O)N(C)C)CC(=O)N1C [PP0665] | B (a compound having 3 or more and less than 10 is denoted as B) | B (a compound having 3 or more and less than 10 is denoted as B)
15 | C#CC[C@H]1C(=O)N[C@@H]([C@@H](C)CC)C(=O)N(C)CC(=O)N(C)[C@H]2CCCCCN(C2=O)[C@@H](Cc2ccc(C(F)(F)F)cc2)C(=O)N(C)CC(=O)N[C@@H](CCc2cc(F)c(C(F)(F)F)c(F)c2)C(=O)N2C[C@H](OCC)C[C@H]2C(=O)NC2(CCC2)C(=O)N(C)[C@@H](C2CCCC2)C(=O)N(C)[C@H](C(=O)N(C)C)CC(=O)N1C [PP0666] | B (a compound having 3 or more and less than 10 is denoted as B) | B (a compound having 3 or more and less than 10 is denoted as B)

From patent US20250230193A1, “CYCLIC COMPOUND HAVING SELECTIVE KRAS INHIBITORY EFFECT ON HRAS AND NRAS” (CHUGAI SEIYAKU KABUSHIKI KAISHA, priority 2022, published 2025)
